Laboratory results taken from publication PMC7217250, “Efficiency of vanillin in impeding metabolic adaptability and virulence of Candida albicans by inhibiting glyoxylate cycle, morphogenesis, and biofilm formation” (Current Medical Mycology, 2020).

Target: T1, Mls1p (malate synthase, MLS) (Candida albicans, UniProt Q5APD2)
T1 construct: gene MLS1; native enzyme in crude extract of C. albicans cells; not purified
Assay: spectrophotometric 5-thio-2-nitrobenzoic acid formation at […] nm, crude extract
Format: cell-based

T1 sequence (Q5APD2 entry or part of it): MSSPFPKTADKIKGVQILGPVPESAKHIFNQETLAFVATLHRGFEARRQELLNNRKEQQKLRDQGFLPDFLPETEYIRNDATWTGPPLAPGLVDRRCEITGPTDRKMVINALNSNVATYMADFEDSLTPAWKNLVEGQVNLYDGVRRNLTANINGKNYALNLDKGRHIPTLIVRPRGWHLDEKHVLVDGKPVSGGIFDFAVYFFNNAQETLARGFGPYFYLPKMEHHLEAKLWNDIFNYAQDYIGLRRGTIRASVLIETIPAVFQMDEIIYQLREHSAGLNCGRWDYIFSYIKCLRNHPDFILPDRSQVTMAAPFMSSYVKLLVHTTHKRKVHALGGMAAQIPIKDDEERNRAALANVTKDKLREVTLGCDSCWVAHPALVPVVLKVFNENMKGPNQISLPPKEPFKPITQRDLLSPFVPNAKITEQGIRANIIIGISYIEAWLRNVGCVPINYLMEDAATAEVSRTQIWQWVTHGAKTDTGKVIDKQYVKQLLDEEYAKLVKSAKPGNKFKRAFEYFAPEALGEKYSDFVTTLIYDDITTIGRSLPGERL

## CC(=O)SCCNC(=O)CCNC(=O)[C@H](O)C(C)(C)COP(=O)(O)OP(=O)(O)OC[C@H]1O[C@@H](n2cnc3c(N)ncnc32)[C@H](O)[C@@H]1OP(=O)(O)O [acetyl CoA]
  spectrophotometric 5-thio-2-nitrobenzoic acid formation at 412 nm, crude extract: acetyl CoA (Sigma Chemical Co., USA) were used as the substrates for the ICL and MLS
